Key:
Cytotoxicity, VERO = assay type: cell-based; settings: African green monkey, VERO cells
S.D. rats = test: Post-MI chronic heart failure model; assay type: in vivo, rat; settings: for Fractional shortening / Left ventricular ejection fraction: 12 weeks after coronary artery ligation
in vivo = settings: Sprague-Dawley (S.D.), rat, iv, 10 mg/kg, Kp (ratio of tissue to plasma concentration), 10 mg/kg i.v.
hERG channel = hERG channel (Homo sapiens, UniProt Q12809); test: Patch clamp for the hERG channel; assay type: cell-based
Sequence of hERG channel (Q12809 whole entry): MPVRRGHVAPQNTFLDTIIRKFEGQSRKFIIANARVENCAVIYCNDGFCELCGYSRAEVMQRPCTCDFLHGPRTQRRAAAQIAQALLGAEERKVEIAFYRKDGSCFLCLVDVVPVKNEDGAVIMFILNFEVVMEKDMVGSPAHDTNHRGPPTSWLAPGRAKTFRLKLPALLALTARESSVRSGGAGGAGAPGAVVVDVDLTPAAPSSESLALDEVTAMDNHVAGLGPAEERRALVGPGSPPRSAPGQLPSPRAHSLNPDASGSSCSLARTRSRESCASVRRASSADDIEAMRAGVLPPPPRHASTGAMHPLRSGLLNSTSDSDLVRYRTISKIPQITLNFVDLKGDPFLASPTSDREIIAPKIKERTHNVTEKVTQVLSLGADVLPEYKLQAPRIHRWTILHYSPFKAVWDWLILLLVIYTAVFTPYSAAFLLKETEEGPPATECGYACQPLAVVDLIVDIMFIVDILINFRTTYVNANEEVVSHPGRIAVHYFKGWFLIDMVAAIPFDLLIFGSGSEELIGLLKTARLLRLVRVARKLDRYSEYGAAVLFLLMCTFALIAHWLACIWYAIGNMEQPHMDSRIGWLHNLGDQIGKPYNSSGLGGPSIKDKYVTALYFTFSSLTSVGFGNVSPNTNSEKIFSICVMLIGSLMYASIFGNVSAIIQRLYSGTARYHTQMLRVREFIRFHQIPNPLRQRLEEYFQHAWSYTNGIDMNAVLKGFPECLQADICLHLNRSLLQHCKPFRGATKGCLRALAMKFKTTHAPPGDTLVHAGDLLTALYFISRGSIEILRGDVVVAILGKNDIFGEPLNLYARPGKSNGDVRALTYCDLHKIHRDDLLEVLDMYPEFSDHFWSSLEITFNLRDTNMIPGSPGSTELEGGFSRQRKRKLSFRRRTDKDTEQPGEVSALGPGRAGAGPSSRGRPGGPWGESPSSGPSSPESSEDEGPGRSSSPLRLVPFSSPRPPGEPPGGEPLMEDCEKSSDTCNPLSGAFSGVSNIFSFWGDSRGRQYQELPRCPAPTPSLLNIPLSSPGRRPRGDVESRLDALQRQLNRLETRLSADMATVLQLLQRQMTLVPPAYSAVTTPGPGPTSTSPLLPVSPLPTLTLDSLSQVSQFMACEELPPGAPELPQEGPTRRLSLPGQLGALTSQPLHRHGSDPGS

Cytotoxicity, L929 = assay type: cell-based; settings: mouse, L929 cells
Cytotoxicity, NIH3T3 = assay type: cell-based; settings: mouse, NIH3T3 cells
[1] = test system: neonatal rat cardiomyocytes; test: Angiotensin II-induced cellular hypertrophy in neonatal cardiomyocytes; settings: 0.1 µM angiotensin II, 4 days
Cytotoxicity, HFL-1 = assay type: cell-based; settings: human, HFL-1 cells
C57BL/6 mice = test: Transverse aortic constriction; settings: 30 mg/kg daily oral, 14 days
GRK2 = molecular target: T1, GRK2 (Homo sapiens, UniProt P25098); test: Inhibitory activity against GRK2; assay type: biochemical; settings: read-out: Inhibition of GRK2
T1 sequence (P25098 1-689): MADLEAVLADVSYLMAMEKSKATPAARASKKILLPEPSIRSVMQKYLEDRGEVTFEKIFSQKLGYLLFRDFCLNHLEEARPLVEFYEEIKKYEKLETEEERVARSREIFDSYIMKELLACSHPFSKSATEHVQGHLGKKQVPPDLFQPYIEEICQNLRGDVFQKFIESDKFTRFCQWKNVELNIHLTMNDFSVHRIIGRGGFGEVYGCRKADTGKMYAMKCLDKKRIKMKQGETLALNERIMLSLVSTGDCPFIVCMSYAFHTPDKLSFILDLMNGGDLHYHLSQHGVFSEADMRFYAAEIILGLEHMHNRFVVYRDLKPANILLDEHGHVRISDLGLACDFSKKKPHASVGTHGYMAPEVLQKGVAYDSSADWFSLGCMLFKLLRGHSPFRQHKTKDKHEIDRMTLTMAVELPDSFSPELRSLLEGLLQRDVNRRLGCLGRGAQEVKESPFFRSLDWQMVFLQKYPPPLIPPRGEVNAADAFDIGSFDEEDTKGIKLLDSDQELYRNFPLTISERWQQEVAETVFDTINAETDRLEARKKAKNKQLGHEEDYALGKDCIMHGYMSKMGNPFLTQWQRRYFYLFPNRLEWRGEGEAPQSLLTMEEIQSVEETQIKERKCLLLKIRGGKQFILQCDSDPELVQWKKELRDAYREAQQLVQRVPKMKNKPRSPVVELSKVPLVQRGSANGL

HDAC5 phosphorylation = test: Angiotensin II-induced HDAC5 phosphorylation in neonatal cardiomyocytes; settings: 0.1 µM angiotensin II
[2] = Pharmacokinetic study in rats; assay type: in vivo; settings: rat
[3] = 30 mg/kg/day p.o., 12 weeks after MI
[4] = Sprague-Dawley (S.D.), plasma, iv, 5 mg/kg
[5] = Sprague-Dawley (S.D.), plasma, po, 300 mg/kg

Question: For `NCCCNCCCCNCCCNc1cc2nc(-c3ccccc3Cl)[nH]c(=O)c2cc1F` [KR-39038, 7-((3-((4-((3-aminopropyl)amino)butyl)amino)propyl)amino)-2-(2-chlorophenyl)-6-fluoroquinazolin-4(3H)-one], which EC50 (Cytotoxicity, VERO) is on record?
Answer: > 100 µM

Question: And the Survival rate (S.D. rats; 10 mg/kg/day p.o., 12 weeks after MI)?
Answer: 80%

Question: What about the Fractional shortening (S.D. rats; 10 mg/kg/day p.o.) of the same molecule?
Answer: 23.4 ± 1.6%

Question: And the “Left ventricular ejection fraction” value (S.D. rats; 10 mg/kg/day p.o.)?
Answer: 44.3 ± 2.6%

Question: What about the Interstitial fibrosis (S.D. rats; [3]) of the same molecule?
Answer: 16.3 ± 1.6%

Question: What about the Myocyte cross-sectional area (S.D. rats; [3]) of the same molecule?
Answer: 420.1 ± 21.2 µm^2

Question: What about the Survival rate (S.D. rats; [3]) of the same molecule?
Answer: 73%

Question: What about the Fractional shortening (S.D. rats; 30 mg/kg/day p.o.) of the same molecule?
Answer: 22.6 ± 1.3%

Question: And the “Left ventricular ejection fraction” value (S.D. rats; 30 mg/kg/day p.o.)?
Answer: 43.4 ± 2.3%

Question: What about the Kp at 4 h (in vivo; brain) of the same molecule?
Answer: 11.3

Question: And the Kp at 4 h (in vivo; heart)?
Answer: 16.9

Question: And the Kp at 4 h (in vivo; kidney)?
Answer: 26.3

Question: And the Kp at 4 h (in vivo; liver)?
Answer: 10.4

Question: And the Kp at 4 h (in vivo; lung)?
Answer: 2.7

Question: And the Kp at 4 h (in vivo; plasma)?
Answer: 1

Question: What about the IC50 (hERG channel) of the same molecule?
Answer: > 50 µM

Question: And the EC50 (Cytotoxicity, L929)?
Answer: 89.9 µM

Question: What about the EC50 (Cytotoxicity, NIH3T3) of the same molecule?
Answer: 61.1 µM

Question: What about the “Effect on angiotensin II-induced cellular hypertrophy (cell surface area)” value [1] of the same molecule?
Answer: concentration-dependently inhibited

Question: What about the EC50 (Cytotoxicity, HFL-1) of the same molecule?
Answer: > 100 µM

Question: What about the “Reduction in the left ventricular weight” value (C57BL/6 mice) of the same molecule?
Answer: 43%

Question: And the inhibition at 10 µM (GRK2)?
Answer: 5.9%

Question: What about the “Effect on angiotensin II-induced phosphorylation of HDAC5” value (HDAC5 phosphorylation) of the same molecule?
Answer: effectively downregulated

Question: And the AUC(0-inf) [2, 4]?
Answer: 3400 ± 1000 ng·h/mL

Question: What about the Vd [2, 4] of the same molecule?
Answer: 1.2 ± 0.2 L/kg

Question: And the clearance [2, 4]?
Answer: 26.7 mL/min/kg

Question: What about the half-life [2, 4] of the same molecule?
Answer: 42 ± 2.4 min

Question: What about the AUC(0-inf) ([2]; Sprague-Dawley (S.D.), plasma, iv, 10 mg/kg) of the same molecule?
Answer: 3400 ± 1000 ng·h/mL

Question: What about the AUC(0-inf) [2, 5] of the same molecule?
Answer: 8900 ± 5000 ng·h/mL

Question: What about the Cmax [2, 5] of the same molecule?
Answer: 5200 ± 2800 ng/mL

Question: What about the Tmax [2, 5] of the same molecule?
Answer: 42 ± 12 min

Question: What about the half-life [2, 5] of the same molecule?
Answer: 138 ± 174 min

Question: And the “F (oral bioavailability)” value ([2]; 300 mg/kg p.o., 300 mg/kg)?
Answer: 4.3 ± 2.4%

Question: For `CC(C)c1ccc2oc3nc(N)c(C(=O)O)cc3c(=O)c2c1` [amlexanox, reference compound], which “Effect on angiotensin II-induced cellular hypertrophy (cell surface area)” value [1] is on record?
Answer: concentration-dependently inhibited

Question: What about the “Effect on angiotensin II-induced phosphorylation of HDAC5” value (HDAC5 phosphorylation) of the same molecule?
Answer: effectively downregulated

Question: Which Survival rate (S.D. rats; [3]) does the source give for `C[C@H](CS)C(=O)N1CCC[C@H]1C(=O)O` [captopril, reference compound] here?
Answer: 67%
